Literature values in US9205152B2, “Melt-blended protein composition” (Kimberly-Clark Worldwide, Inc., priority 2010, dated 2015).

Details: pH prior to incorporation into the composition

pH: about 6
SMILES: OCC(O)CO [glycerol]
